From ChEMBL document CHEMBL1201862, “PubChem BioAssay data set” (2004)
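These data come from cells grown in 96-well plates and exposed to compound for 48 hours at five concentrations. GI50 marks 50% less growth.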 The source made the active and inactive calls. No stated cut-off is given here; in the data, active = GI50 up to about 1.1 µM and inactive = higher.

Key:
Test in all cases: NCI-60 cell line screen, 48 h
UACC-62 = system: UACC-62
HOP-62 = system: HOP-62
RPMI-8226 = system: RPMI-8226
HT-29 = system: HT-29
U-251 = system: U-251
EKVX = system: EKVX
SF-539 = system: SF-539
HOP-92 = system: HOP-92
UO-31 = system: UO-31
MDA-MB-231 = system: MDA-MB-231
ACHN = system: ACHN
SK-MEL-5 = system: SK-MEL-5
Hs-578T = system: Hs-578T
SN12C = system: SN12C
SF-295 = system: SF-295
M14 = system: M14
Malme-3M = system: Malme-3M
SNB-75 = system: SNB-75
HCT-15 = system: HCT-15
DU-145 = system: DU-145
MCF7 = system: MCF7
NCI-H460 = system: NCI-H460
PC-3 = system: PC-3
786-0 = system: 786-0
OVCAR-3 = system: OVCAR-3
T47D = system: T47D
BT-549 = system: BT-549
IGROV-1 = system: IGROV-1
SW-620 = system: SW-620
HCC 2998 = system: HCC 2998
OVCAR-5 = system: OVCAR-5
CCRF-CEM = system: CCRF-CEM
HL-60 = system: HL-60
TK-10 = system: TK-10
NCI-H226 = system: NCI-H226
OVCAR-4 = system: OVCAR-4
SK-MEL-28 = system: SK-MEL-28
HCT-116 = system: HCT-116
NCI-H23 = system: NCI-H23
SNB-19 = system: SNB-19
CAKI-1 = system: CAKI-1
LOX IMVI = system: LOX IMVI
KM12 = system: KM12
NCI/ADR-RES = system: NCI/ADR-RES
A498 = system: A498
UACC-257 = system: UACC-257
NCI-H522 = system: NCI-H522
COLO 205 = system: COLO 205
MDA-N = system: MDA-N
SR = system: SR
A549 = system: A549
MOLT-4 = system: MOLT-4
SK-MEL-2 = system: SK-MEL-2
SF-268 = system: SF-268
SK-OV-3 = system: SK-OV-3
OVCAR-8 = system: OVCAR-8
RXF 393 = system: RXF 393
MDA-MB-435 = system: MDA-MB-435
K562 = system: K562

## O=C1c2cccnc2C(=O)c2c1nc1ccccc1c2-c1ccc2c3c(nc4ccccc42)C(=O)c2cccnc2-c13
UACC-62
  GI50: 1730 nM (inactive)
HOP-62
  GI50: 1170 nM (inactive)
RPMI-8226
  GI50: 1630 nM (inactive)
HT-29
  GI50: 2380 nM (inactive)
U-251
  GI50: 1750 nM (inactive)
EKVX
  GI50: 940 nM (active)
SF-539
  GI50: 832 nM (active)
HOP-92
  GI50: 10500 nM (inactive)
UO-31
  GI50: 1240 nM (inactive)
MDA-MB-231
  GI50: 2210 nM (inactive)
ACHN
  GI50: 383 nM (active)
SK-MEL-5
  GI50: 467 nM (active)
Hs-578T
  GI50: 1810 nM (inactive)
SN12C
  GI50: 912 nM (active)
SF-295
  GI50: 2560 nM (inactive)
M14
  GI50: 405 nM (active)
Malme-3M
  GI50: 1040 nM (active)
SNB-75
  GI50: 2070 nM (inactive)
HCT-15
  GI50: 195 nM
DU-145
  GI50: 359 nM (active)
MCF7
  GI50: 2070 nM (inactive)
NCI-H460
  GI50: 1550 nM (inactive)
PC-3
  GI50: 1440 nM (inactive)
786-0
  GI50: 417 nM (active)
OVCAR-3
  GI50: 244 nM (active)
T47D
  GI50: 4580 nM (inactive)
BT-549
  GI50: 2460 nM (inactive)
IGROV-1
  GI50: 72.8 nM (active)
SW-620
  GI50: 268 nM (active)
HCC 2998
  GI50: 1590 nM (inactive)
OVCAR-5
  GI50: 6430 nM (inactive)
CCRF-CEM
  GI50: 2070 nM (inactive)
HL-60
  GI50: 1200 nM (inactive)
TK-10
  GI50: 2760 nM (inactive)
NCI-H226
  GI50: 859 nM (active)
OVCAR-4
  GI50: 1080 nM (active)
SK-MEL-28
  GI50: 2550 nM (inactive)
HCT-116
  GI50: 459 nM (active)
NCI-H23
  GI50: 1060 nM (active)
SNB-19
  GI50: 1840 nM (inactive)
CAKI-1
  GI50: 1750 nM (inactive)
LOX IMVI
  GI50: 437 nM (active)
KM12
  GI50: 971 nM (active)
NCI/ADR-RES
  GI50: 1450 nM (inactive)
A498
  GI50: 2690 nM (inactive)
UACC-257
  GI50: 2040 nM (inactive)
NCI-H522
  GI50: 692 nM (active)
COLO 205
  GI50: 2080 nM (inactive)
MDA-N
  GI50: 2130 nM (inactive)
SR
  GI50: < 10 nM (active)
A549
  GI50: 2170 nM (inactive)
MOLT-4
  GI50: 638 nM (active)
SK-MEL-2
  GI50: 2100 nM (inactive)
SF-268
  GI50: 520 nM (active)
SK-OV-3
  GI50: 1850 nM (inactive)
OVCAR-8
  GI50: 370 nM (active)
RXF 393
  GI50: 838 nM (active)
MDA-MB-435
  GI50: 1870 nM (inactive)
K562
  GI50: 1580 nM (inactive)
